Test results reported in article PMC9800739, “Epigenetic drugs in somatostatin type 2 receptor radionuclide theranostics and radiation transcriptomics in mouse pheochromocytoma models” (Theranostics, 2023).

How the values were obtained:
[1] = system: MPC and MTT allograft mice; assay: Biodistribution / retention of [64Cu]Cu-DOTA-TATE; format: in vivo, mouse; settings: DAC-treated animals; no relationship with SUV changes in tumors
Procedure: Radiotracer was injected as described for PET imaging. Mice were sacrificed 60 min after radiotracer injection, organs were excised and weighted, and activity in tissue samples was measured using the gamma counter Wizard (PerkinElmer, Waltham, MA, USA). Standardized uptake values were determined.
107 (30%), muscle (0%), kidneys (25%), and liver (35%).
116 attenuation. Images were post-processed and analyzed using ROVER (ABX). Three-
118 kidneys (15%), and liver (25%).
119 1.6 Sstr2 promoter methylation analysis
122 Bisulfite Kit (Qiagen, Hilden, Germany). Bisulfite-converted DNA was amplified using a
Amplicon size (195bp) was confirmed
125 Switzerland). Electropherograms were compared to PCR products amplified from bisulfite-
127 an unmethylated 900bp-DNA fragment. The latter was generated by amplification of genomic
129 of primers are provided in (Table S 2).

SSTR2 = system: SSTR2; parameters: method as in PMID 26211366; settings: neuroendocrine tumor models; cited from earlier work

For `Nc1ncn([C@H]2C[C@H](O)[C@@H](CO)O2)c(=O)n1` [DAC, 5-Aza-2'-deoxycytidine], the “activity retention in the liver, effect” value [1] was “significantly higher in DAC-treated animals”.

For `CCCC(CCC)C(=O)O` [VPA, valproic acid], the “SSTR2 stimulation (effect)” value (SSTR2) is given as “stimulate SSTR2”.
